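Five compound concentrations were applied to cells in 96-well plates for 48 hours; endpoints were derived by simple linear interpolation of the resulting dose-response curve. The concentration for 50% growth inhibition is given as GI50.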 Active and inactive are the calls of the source. Rule as the data show it: active = GI50 up to about 1.1 µM and inactive = higher.
Columns and labels:
Assay in all cases: NCI anticancer screen, dose series, 48 h
[1] = tested on: MDA-MB-435
[2] = tested on: HL-60
[3] = tested on: MOLT-4
[4] = tested on: SW-620
[5] = tested on: COLO 205
[6] = tested on: BT-549
[7] = tested on: OVCAR-3
[8] = tested on: PC-3
[9] = tested on: SR
[10] = tested on: T47D
[11] = tested on: SK-MEL-28
[12] = tested on: HT-29
[13] = tested on: HOP-62
[14] = tested on: OVCAR-8
[15] = tested on: MDA-MB-231
[16] = tested on: LXFL 529
[17] = tested on: XF498
[18] = tested on: DMS-273
[19] = tested on: SNB-78

Row | Structure (SMILES) | GI50 [1] | GI50 [2] | GI50 [3] | GI50 [4] | GI50 [5] | GI50 [6] | GI50 [7] | GI50 [8] | GI50 [9] | GI50 [10] | GI50 [11] | GI50 [12] | GI50 [13] | GI50 [14] | GI50 [15] | GI50 [16] | GI50 [17] | GI50 [18] | GI50 [19]
1 | COc1ccc(C(=C2C=CC=C2)c2ccc(OC)cc2)cc1 | 35.8 µM (inactive) | 36.4 µM (inactive) | 14.5 µM (inactive) | 32.6 µM (inactive) | 23.7 µM (inactive) | > 100 µM (inactive) | 47.1 µM (inactive) | 47.5 µM (inactive) | 25.9 µM (inactive) | 24.2 µM (inactive) | 53.5 µM (inactive) | 24 µM (inactive) | 39.9 µM (inactive) | 44.5 µM (inactive) | 16.1 µM (inactive) |  |  |  | 
2 | COC(=O)C1=C(C)N2CCSC2(C)C(C(=O)OC)C1c1cccc(Cl)c1 (centres undefined) |  | 12.4 µM (inactive) | 14.6 µM (inactive) | 37.1 µM (inactive) | 18.5 µM (inactive) |  | 15.6 µM (inactive) |  | 15.5 µM (inactive) |  | 19.1 µM (inactive) | 16.6 µM (inactive) | 18.9 µM (inactive) | 22.6 µM (inactive) |  | 20 µM (inactive) |  |  | 
3 | COc1ccc(-c2c3c(nc4[nH]c(=S)[nH]c(=S)c24)CCCC3)cc1OC | 34.5 µM (inactive) | 24.7 µM (inactive) | 19.9 µM (inactive) | 35.8 µM (inactive) | 45 µM (inactive) | 48.9 µM (inactive) | 52.1 µM (inactive) | 24 µM (inactive) | 27.9 µM (inactive) | 25.9 µM (inactive) | 24.2 µM (inactive) | 22.1 µM (inactive) | 19.6 µM (inactive) | 23.9 µM (inactive) | 18 µM (inactive) |  |  |  | 
4 | Oc1cc2cc(O)nc(O)c2c(O)n1 |  | > 100 µM (inactive) | > 100 µM (inactive) | > 100 µM (inactive) | > 100 µM (inactive) |  | > 100 µM (inactive) |  | > 100 µM (inactive) |  |  | > 100 µM (inactive) | > 100 µM (inactive) |  |  | > 100 µM (inactive) | > 100 µM (inactive) | > 100 µM (inactive) | > 100 µM (inactive)
5 | CC(=N/NC(=S)Nc1c(C)n(C)n(-c2ccccc2)c1=O)/C(C)=N\NC(=S)Nc1c(C)n(C)n(-c2ccccc2)c1=O | > 100 µM (inactive) | > 100 µM (inactive) | > 100 µM (inactive) | > 100 µM (inactive) | > 100 µM (inactive) | > 100 µM (inactive) | > 100 µM (inactive) | > 100 µM (inactive) | > 100 µM (inactive) | > 100 µM (inactive) |  | > 100 µM (inactive) | > 100 µM (inactive) | > 100 µM (inactive) | > 100 µM (inactive) |  |  |  | 
6 | CCOC(=O)C1(C(C)=O)OC(=O)c2cnccc21 (centres undefined) | > 100 µM (inactive) | > 100 µM (inactive) | > 100 µM (inactive) | > 100 µM (inactive) | > 100 µM (inactive) | > 100 µM (inactive) | > 100 µM (inactive) | > 100 µM (inactive) | > 100 µM (inactive) | > 100 µM (inactive) | > 100 µM (inactive) | > 100 µM (inactive) |  | > 100 µM (inactive) | > 100 µM (inactive) |  |  |  | 
7 | BrC(/C=N/Nc1nnc(-c2ccccc2)c(-c2ccccc2)n1)C(Br)c1ccccc1 (centres undefined) |  | 22.4 µM (inactive) | 17.7 µM (inactive) | 37.8 µM (inactive) | 33.2 µM (inactive) |  | 35.7 µM (inactive) |  |  |  | 37.3 µM (inactive) | 34 µM (inactive) | 20.6 µM (inactive) | 38.5 µM (inactive) |  |  | 25.3 µM (inactive) | 30.5 µM (inactive) | 17.7 µM (inactive)
8 | BrCC[N+]12CC[N+](CCBr)(CC1)C2 | > 100 µM (inactive) | > 100 µM (inactive) | > 100 µM (inactive) | > 100 µM (inactive) | > 100 µM (inactive) | > 100 µM (inactive) | > 100 µM (inactive) | > 100 µM (inactive) | > 100 µM (inactive) | > 100 µM (inactive) | > 100 µM (inactive) | > 100 µM (inactive) | 39.1 µM (inactive) | > 100 µM (inactive) | > 100 µM (inactive) |  |  |  | 
9 | COc1cc(S(=O)(=O)Nc2ccc(-c3csc(/N=C\c4cccc(Oc5ccccc5)c4)n3)cc2)ccc1Cl | 30.8 µM (inactive) | 23.2 µM (inactive) | 23 µM (inactive) | 40.3 µM (inactive) | 34.7 µM (inactive) | 32.7 µM (inactive) | 31.9 µM (inactive) | 36.7 µM (inactive) | 21.1 µM (inactive) | 16.2 µM (inactive) | 36.1 µM (inactive) | 9.75 µM (inactive) | 44.9 µM (inactive) | 25.6 µM (inactive) |  |  |  |  | 
10 | C=CC(OC(=O)C(C)C)c1ccc(OC(=O)C(C)C)cc1 (centres undefined) | 13.6 µM (inactive) | 2.92 µM (inactive) | 6.93 µM (inactive) | 4.06 µM (inactive) | 8.87 µM (inactive) | 17.4 µM (inactive) | 16.9 µM (inactive) | 8.97 µM (inactive) | 6.92 µM (inactive) | 21.6 µM (inactive) | 10.6 µM (inactive) | 11.1 µM (inactive) | 9.95 µM (inactive) | 17.5 µM (inactive) | 16.4 µM (inactive) |  |  |  | 
11 | COc1ccc(C2=NN(C(=O)c3ccc(Cl)cc3)C(O)(c3cc(F)c(Cl)cc3Cl)C2)cc1 (centres undefined) | 18.6 µM (inactive) | 51.5 µM (inactive) | 12.8 µM (inactive) |  | 93.5 µM (inactive) | > 100 µM (inactive) | > 100 µM (inactive) | 61.9 µM (inactive) |  | 57.7 µM (inactive) | > 100 µM (inactive) | 17.3 µM (inactive) | > 100 µM (inactive) | > 100 µM (inactive) | > 100 µM (inactive) |  |  |  | 
12 | COc1cc(CNc2nc3c(NC(C)=O)cc(C(F)(F)F)cc3nc2-c2ccccc2)cc(OC)c1OC |  |  | > 100 µM (inactive) | > 100 µM (inactive) | > 100 µM (inactive) |  | > 100 µM (inactive) |  | > 100 µM (inactive) |  | > 100 µM (inactive) |  | > 100 µM (inactive) | > 100 µM (inactive) |  | > 100 µM (inactive) | 26.5 µM (inactive) | > 100 µM (inactive) | 
13 | CCOC(=O)C1=C(C)N(c2ccc(Cl)cc2)C2(O)C=CC(Nc3ccc(Cl)cc3)=C3C(=O)N(c4ccccc4)C(=O)C312 (centres undefined) | 1.78 µM (inactive) | 2.97 µM (inactive) | 2.12 µM (inactive) | 3.74 µM (inactive) | 2.44 µM (inactive) | 1.54 µM (inactive) | 0.313 µM (active) | 2.94 µM (inactive) | 2.88 µM (inactive) | 3.84 µM (inactive) | 2.36 µM (inactive) | 3.66 µM (inactive) | 1.63 µM (inactive) | 3.64 µM (inactive) | 4.25 µM (inactive) |  |  |  | 
14 | C/C(N)=N/OCc1nc(C)no1 | > 100 µM (inactive) | > 100 µM (inactive) | > 100 µM (inactive) | > 100 µM (inactive) | > 100 µM (inactive) | > 100 µM (inactive) | > 100 µM (inactive) | > 100 µM (inactive) | > 100 µM (inactive) | > 100 µM (inactive) | > 100 µM (inactive) | > 100 µM (inactive) | > 100 µM (inactive) | > 100 µM (inactive) | > 100 µM (inactive) |  |  |  | 
15 | COc1cccc2ccc(C(=O)c3ccccc3)nc12 |  |  | > 100 µM (inactive) | > 100 µM (inactive) | > 100 µM (inactive) |  | > 100 µM (inactive) |  | > 100 µM (inactive) |  | 88.9 µM (inactive) |  | > 100 µM (inactive) | > 100 µM (inactive) |  | 77.8 µM (inactive) | > 100 µM (inactive) | > 100 µM (inactive) | > 100 µM (inactive)
16 | COC(=O)N/N=C/c1oc(-c2ccccc2)c(-c2ccccc2)c1[N+](=O)[O-] |  | > 100 µM (inactive) | > 100 µM (inactive) | > 100 µM (inactive) | > 100 µM (inactive) |  | > 100 µM (inactive) |  | > 100 µM (inactive) |  | > 100 µM (inactive) | > 100 µM (inactive) | > 100 µM (inactive) | > 100 µM (inactive) |  | > 100 µM (inactive) | > 100 µM (inactive) | > 100 µM (inactive) | > 100 µM (inactive)
17 | CC(=O)NC(CCC(=O)C=[N+]=[N-])C(=O)O (centres undefined) | > 100 µM (inactive) | > 100 µM (inactive) | > 100 µM (inactive) | > 100 µM (inactive) | > 100 µM (inactive) | > 100 µM (inactive) | > 100 µM (inactive) | > 100 µM (inactive) | > 100 µM (inactive) | > 100 µM (inactive) | > 100 µM (inactive) | > 100 µM (inactive) | > 100 µM (inactive) | > 100 µM (inactive) | > 100 µM (inactive) |  |  |  | 
18 | Oc1[nH]c(Nc2cccc(Br)c2)nc2ncnc1-2 | 93.5 µM (inactive) | 11.6 µM (inactive) | > 100 µM (inactive) | > 100 µM (inactive) | > 100 µM (inactive) | 82.8 µM (inactive) | 89.5 µM (inactive) | 98.2 µM (inactive) | 76.4 µM (inactive) | 98.4 µM (inactive) | > 100 µM (inactive) | 82.6 µM (inactive) |  | > 100 µM (inactive) | 55.6 µM (inactive) |  |  |  | 
19 | CC1=C(CO)C(=O)O[C@@H]([C@@H](C)[C@H]2CC[C@H]3[C@@H]4C[C@H]5O[C@]56[C@@H](O)C=CC(=O)[C@]6(C)[C@H]4CC[C@]23C)C1 [WITHAFERIN A] |  | 0.0394 µM (active) | 0.187 µM (active) | 0.199 µM (active) | 0.406 µM (active) |  | 1.05 µM (active) |  | 0.189 µM (active) |  | 0.55 µM (active) | 0.417 µM (active) | 2.04 µM (inactive) | 0.374 µM (active) |  | 0.333 µM (active) | 1.43 µM (inactive) | 0.405 µM (active) | 

— ChEMBL document CHEMBL1201862, “PubChem BioAssay data set” (2004)
